# Data from patent US20240122180A1, “FUNGICIDAL HALOMETHYL KETONES AND HYDRATES AND THEIR MIXTURES” (FMC Corporation, priority 2020, published 2024).
# Marks after values point to notes of the source that are not given here.
# Columns and labels:
# [1] = test system: Puccinia recondita f. sp. tritici (the causal agent of wheat leaf rust); assay: Test B: preventive spray on wheat seedlings, disease rating (100 = 100% control; * 50 ppm, ** 10 ppm, *** 250 ppm); format: in vivo; details: 100 = 100% disease control; for pest or weed control at 10 ppm / pest or weed control at 50 ppm: Puccinia recondita
# How it was run: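 Preventive test: Puccinia recondita f. sp. tritici spores were inoculated one day after run-off spraying of wheat seedlings with test suspension (acetone/water 50/50, 250 ppm PEG400). After 24 h in saturated air and 6 days in a growth chamber, both at 20° C, control was scored 0–100 versus untreated plants.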
# [2] = test system: Zymoseptoria tritici (the causal agent of wheat leaf blotch); assay: Test D: preventive spray on wheat seedlings, disease rating (100 = 100% control; * 50 ppm, ** 10 ppm, *** 250 ppm); format: in vivo; details: 250 ppm test suspension, 100 = 100% disease control; for pest or weed control at 250 ppm: Zymoseptoria tritici
# How it was run: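 Compounds first dissolved in acetone (3% of final volume), then suspended in 50/50 acetone/water with 250 ppm PEG400 and sprayed to run-off on wheat seedlings; Z. tritici spores inoculated next day. Incubated saturated at 24° C. 48 h, then 20° C. 17 days; disease control rated 0–100 versus controls.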
# [3] = test system: Blumeria graminis f. sp. tritici (the causal agent of wheat powdery mildew); assay: Test E: preventive spray on wheat seedlings, visual disease rating (100 = 100% control; * 50 ppm, ** 10 ppm, *** 250 ppm); format: in vivo; details: 250 ppm test suspension, 100 = 100% disease control; for pest or weed control at 250 ppm: Blumeria graminis
# How it was run: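 Test suspension (3% acetone, acetone/water 50/50, 250 ppm PEG400) sprayed to run-off on wheat seedlings; inoculated next day with powdery mildew spore dust and kept 8 days at 20 °C. Visual rating, 100 = full and 0 = no control relative to untreated.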
# [4] = test system: Phakopsora pachyrhizi (the causal agent of Asian soybean rust); assay: Test A: preventive spray on soybean seedlings, visual disease rating (100 = 100% control; * 50 ppm, ** 10 ppm, *** 250 ppm); format: in vivo; details: 100 = 100% disease control
# How it was run: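 Preventive test: one day after spraying compound (acetone/water suspension, 250 ppm PEG400), seedlings received rust spore inoculum, 24 h in saturated air then 8 days in growth chamber, both at 22 °C. Disease control scored visually, 100 = complete, 0 = none, relative to untreated controls.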
# [5] = test system: Uncinula necator (the causal agent of grape powdery mildew); assay: Test C: preventive spray on grape seedlings, disease rating (100 = 100% control; * 50 ppm, ** 10 ppm, *** 250 ppm); format: in vivo; details: 100 = 100% disease control
# How it was run: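 Grape seedlings sprayed to run-off with compound suspended in acetone/water (50/50) with 250 ppm PEG400, then inoculated next day with Uncinula necator spores. Kept at 20 °C for 12 days before disease rating, where 100 is full control and 0 none, relative to untreated controls.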
# [6] = test system: Phakopsora pachyrhizi (the causal agent of Asian soybean rust); assay: Test F: Compound 32 or 64 alone and in mixtures on soybean seedlings, observed (Obsd) and Colby expected (Exp) disease control; format: in vivo; details: for pest or weed control at 1.422 ppm: Compound 32 1.422 ppm alone; for pest or weed control at 2.276 ppm: Compound 32 2.276 ppm alone
# [7] = 10 ppm test suspension, wheat seedlings
# [8] = Phakopsora pachyrhizi, 10 ppm test suspension, 0 = no control
# [9] = 10 ppm test suspension, 0 = no control
# [10] = 50 ppm test suspension, wheat seedlings
# [11] = Phakopsora pachyrhizi, Table B-1
# [12] = Phakopsora pachyrhizi, Table C-1
# [13] = Phakopsora pachyrhizi, Table D-1
# [14] = Phakopsora pachyrhizi, Table F-1
# [15] = Phakopsora pachyrhizi, Table G-1
# [16] = Phakopsora pachyrhizi, Table H-1
# [17] = Phakopsora pachyrhizi, Table I-1
# [18] = 50 ppm test suspension, 0 = no control
# [19] = 250 ppm test suspension, 0 = no control
smiles,measurement,setting,value
"CCO/C(=C\Oc1ccc(Cn2cc(C(=O)OCc3ccccc3)cn2)cc1)C(F)(F)F [Compound 186, phenylmethyl 1-[[4-[[(1Z)-2-ethoxy-3,3,3-trifluoro-1-propen-1-yl]oxy]phenyl]methyl]-1H-pyrazole-4-carboxylate]",pest or weed control at 10 ppm,[1]; [7],0%
same,pest or weed control at 250 ppm,[2]; wheat seedlings,9%
same,pest or weed control at 250 ppm,[3]; wheat seedlings,84%
same,melting point,,63 to 67 °C
OC(O)(COc1cccc(Cn2cc(Br)cn2)c1)C(F)(F)F [compound 386],pest or weed control at 10 ppm,[4]; [8],84%
same,pest or weed control at 10 ppm,[1]; [9],19%
same,melting point,,83.7 to 86.5 °C
"CCOC(=O)c1cnn(Cc2ccc(OCC3(C(F)(F)F)OCCO3)cc2)c1 [Compound 32, ethyl 1-[[4-[[2-(trifluoromethyl)-1,3-dioxolan-2-yl]methoxy]phenyl]methyl]-1H-pyrazole-4-carboxylate]",pest or weed control at 50 ppm,[1]; [10],68%
same,pest or weed control at 10 ppm,"[5]; Erysiphe necator, 10 ppm test suspension (**), grape seedlings",100%
same,pest or weed control at 250 ppm,[2]; wheat seedlings,89%
same,pest or weed control at 250 ppm,[3]; wheat seedlings,97%
same,pest or weed control at 1.422 ppm,[6]; Table E-1,78%
same,pest or weed control at 2.276 ppm,[6]; Table E-1,80%
same,pest or weed control at 1.422 ppm,[6]; [11],55%
same,pest or weed control at 1.422 ppm,[6]; [12],39%
same,pest or weed control at 1.422 ppm,[6]; [13],52%
same,pest or weed control at 1.422 ppm,[6]; [14],75%
same,pest or weed control at 1.422 ppm,[6]; [15],39%
same,pest or weed control at 1.422 ppm,[6]; [16],69%
same,pest or weed control at 1.422 ppm,[6]; [17],63%
same,pest or weed control at 2.276 ppm,[6]; [11],64%
same,pest or weed control at 2.276 ppm,[6]; [12],44%
same,pest or weed control at 2.276 ppm,[6]; [13],60%
same,pest or weed control at 2.276 ppm,[6]; [14],77%
same,pest or weed control at 2.276 ppm,[6]; [15],61%
same,pest or weed control at 2.276 ppm,[6]; [16],63%
same,pest or weed control at 2.276 ppm,[6]; [17],71%
CCOC(=O)c1cnn(Cc2cnn(CC(O)(O)C(F)(F)F)c2)c1 [compound 368],pest or weed control at 50 ppm,"[4]; Phakopsora pachyrhizi, 50 ppm test suspension, 0 = no control",0%
same,pest or weed control at 50 ppm,[1]; [18],0%
same,pest or weed control at 250 ppm,"[5]; Erysiphe necator, 250 ppm test suspension, 0 = no control",33%
same,pest or weed control at 250 ppm,[2]; 0 = no control,0%
same,pest or weed control at 250 ppm,[3]; 0 = no control,0%
same,melting point,,81 to 84 °C
"O=C(NCC1CC1)c1csc(Cc2ccc(OCC3(C(F)(F)F)OCCO3)cc2)n1 [Compound 71, N-(cyclopropylmethyl)-2-[[4-[[2-(trifluoromethyl)-1,3-dioxolan-2-yl]methoxy]phenyl]-methyl]thiazole-4-carboxamide]",pest or weed control at 10 ppm,[1]; [7],96%
same,melting point,,88 to 92 °C
CCOC(=O)c1cnn(Cc2c(F)c(F)c(OCC3(C(F)(F)F)OCCO3)c(F)c2F)c1 [compound 392],pest or weed control at 10 ppm,[4]; [8],97%
same,pest or weed control at 10 ppm,[1]; [9],19%
same,melting point,,59 to 62 °C
CCO/C(=C\Oc1cccc(Cn2cc(C(=O)NCC(F)(F)F)cn2)c1)C(F)(F)F [compound 401],Test A disease control rating,[4]; [9],0%
same,Test B disease control rating,[1]; [9],0%
same,Test C disease control rating,[5]; [19],35*** %
same,Test D disease control rating,[2]; 0 = no control,0*** %
same,Test E disease control rating,[3]; 0 = no control,0*** %
CCS(=O)(=O)N1CC(c2ccc(OCC3(C(F)(F)F)OCCO3)cc2)C1 [compound 382],Test A disease control rating,[4]; [18],0%
same,Test B disease control rating,[1]; [18],0%
same,Test C disease control rating,[5]; [19],22*** %
same,Test D disease control rating,[2]; 0 = no control,4*** %
same,Test E disease control rating,[3]; 0 = no control,56*** %
CCO/C(=C\Oc1ccc(Cc2ncc(C(=O)NCC(F)F)s2)cc1)C(F)(F)F [compound 276],Test A disease control rating,[4]; [9],13%
same,Test B disease control rating,[1]; [9],0%
same,Test C disease control rating,[5]; [18],100* %
same,Test D disease control rating,[2]; 0 = no control,53*** %
same,Test E disease control rating,[3]; 0 = no control,86*** %
CC(=O)c1ccc(OCC(O)(O)C(F)(F)F)cc1 [compound 80],Test A disease control rating,"[4]; 50 ppm test suspension, soybean seedlings",99%
same,Test B disease control rating,[1]; [10],100%
same,Test C disease control rating,"[5]; 50 ppm test suspension, grape seedlings",0%
same,Test D disease control rating,[2]; wheat seedlings,96*** %
same,Test E disease control rating,[3]; wheat seedlings,99*** %
O=C(NCC1CC1)c1cnc(Cc2ccc(OCC(O)(O)C(F)(F)F)cc2)s1 [compound 256],Test A disease control rating,"[4]; 10 ppm test suspension, soybean seedlings",73%
same,Test B disease control rating,[1]; [7],0%
same,Test C disease control rating,"[5]; 250 ppm test suspension, grape seedlings",15*** %
same,Test D disease control rating,[2]; wheat seedlings,95*** %
same,Test E disease control rating,[3]; wheat seedlings,82*** %
CCOC(=O)c1cnn(Cc2c(F)c(F)c(OCC(O)(O)C(F)(F)F)c(F)c2F)c1 [Compound 465],Test A disease control rating,[4]; [18],100%
same,Test B disease control rating,[1]; [18],100%
same,Test C disease control rating,[5]; [19],73*** %
same,Test D disease control rating,[2]; 0 = no control,59*** %
same,Test E disease control rating,[3]; 0 = no control,91*** %
CCO/C(=C\Oc1ccc(Cn2cc(C(=O)NC)cn2)cc1)C(F)(F)F [compound 414],Test A disease control rating,[4]; [9],45%
same,Test B disease control rating,[1]; [9],0%
same,Test C disease control rating,[5]; [19],91*** %
same,Test D disease control rating,[2]; 0 = no control,97*** %
same,Test E disease control rating,[3]; 0 = no control,90*** %
